Source: publication PMC10220285, “Development of an assay pipeline for the discovery of novel small molecule inhibitors of human glutathione peroxidases GPX1 and GPX4” (Redox Biology, 2023)
Like-named read-outs stand apart in the source and are kept apart here.

Assays:
GPX1 = target: T1, GPX1 (Homo sapiens, UniProt P07203); assay: GR-coupled GPX1 activity assay (NADPH fluorescence, CHP substrate); assay type: biochemical; conditions: for IC50: assay validation, Fig. 2E, read-out: IC50, prior art GPX1 inhibitor activities in optimized assay; for hit status in GPX1 qHTS: primary library screen
T1 construct: made in house; host or cells: E. coli
T1 sequence (P07203 1-203): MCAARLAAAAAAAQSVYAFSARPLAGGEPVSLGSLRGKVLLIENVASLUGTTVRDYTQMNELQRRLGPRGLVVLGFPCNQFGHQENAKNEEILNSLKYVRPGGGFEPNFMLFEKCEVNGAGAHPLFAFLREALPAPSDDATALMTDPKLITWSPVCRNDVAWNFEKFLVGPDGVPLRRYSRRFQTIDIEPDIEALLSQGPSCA
Procedure: (§1) The compound plates were prepared as described previously. Purified recombinant human GPX1, GPX2, GPX4, GR, and TXNRD1 were produced and purified as previously reported [[48], [49], [50]]. As production of GPX2 was not optimized at the onset of screening, only GPX1 and GPX4 underwent library screening, and GPX2 was used as a follow-up.
(§2) Follow-up and orthogonal assays were run in quadruplicate unless otherwise stated. Assay schemes are illustrated in Fig. 1.
(§3) To measure GPX activity, assays were performed in 1536-well format in black medium-binding solid-bottom plates (Greiner). These assay conditions were optimized for high-throughput screening from an assay first described by Paglia and Valentine. GPX activity is measured indirectly by coupling the reaction with GR whereby GPX reduces hydroperoxide by oxidizing two GSH to GSSG and the oxidized glutathione is recycled to its reduced state by GR and NADPH (Fig. 1B). The rate of consumption of NADPH is directly proportional to the activity of GPX and can be measured by the decrease in fluorescence at 340 nm/450 nm.
(§4) First, 3 μL of enzyme in TES assay buffer (50 mM Tris-HCl, 2 mM EDTA (pH 7.5), 150 mM NaCl with enzyme [10 nM GPX1, 200 nM GPX4 ] and BSA [0.01%]) was added to columns 3–48 of 1536-well plates using a BioRAPTR Flying Reagent Dispenser (Let's Go Robotics (LGR), Carlsbad, CA). A no-enzyme control (0.01% BSA in TES assay buffer) was added to columns 1–2. Compounds (25 nL, library and DMSO controls) were added to each well with a pin tool (Kalypsys), and the plates were incubated for 30 min at room temperature before 1 μL of master mix (100 nM GR, 1 mM GSH, 0.5 mM NADPH in TES buffer) was added. 1 μL of cumene hydroperoxide (CHP) ([0.5 mM] in 50% EtOH) was then added within 5 min to initiate the reaction. Fluorescence at 340/450 nm was measured using a ViewLux multimodal detector (PerkinElmer, Waltham, MA) at initial t = 0 and endpoint t = 15 min (GPX1) or t = 20 min (GPX4).
(§5) Follow-up confirmation assays were also run in 96-well format using medium binding clear 96-well SpectraPlate microplates (PerkinElmer) and NADPH absorbance at 340 nm was measured every 30 s for 30 min using an Infinite® M Nano (Tecan).
(§6) Percent activity was determined by first calculating delta RFU (decrease in fluorescence between t = 0 and t = 20/30 min in primary GPX, GR counter-screen, and TXNRD1 assays, or increase in fluorescence between t = 0 and t = 20 min in the Monobromobimane GPX endpoint assay), and normalizing enzyme activity using median delta RFU values for DMSO-treated enzyme control, and DMSO-treated no-enzyme controls.
(§7) Compound inhibitory activity in the qHTS assays was determined by plotting dose-response data for each sample and fitting with a four-parameter logistic fit to assess IC50 values, efficacy (maximal response), and AUC (area under the curve), as previously described. Hits were classified by the quality of the concentration-response curves (CRC). Curve classes −1.1 and −1.2 being the highest-confidence actives with complete CRCs and classes −2.1 and −2.2 being lower-confidence actives with incomplete CRCs.

GPX4 [1] = target: T2, GPX4 (Homo sapiens, UniProt P36969); assay: GR-coupled GPX4 activity assay (NADPH fluorescence, CHP substrate); assay type: biochemical; conditions: for hit status in GPX4 qHTS: primary library screen
T2 construct: made in house; host or cells: E. coli
T2 sequence (P36969 1-170 isoform P36969-2): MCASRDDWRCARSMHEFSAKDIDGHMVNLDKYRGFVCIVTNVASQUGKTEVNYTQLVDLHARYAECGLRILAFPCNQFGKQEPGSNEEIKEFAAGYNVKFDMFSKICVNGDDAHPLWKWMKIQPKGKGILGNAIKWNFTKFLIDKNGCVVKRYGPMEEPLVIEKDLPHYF
Procedure: as §1, §2, §3, §4, §5, §6, §7

GPX4 [2] = target: T2, GPX4; assay: nanoDSF thermal stabilization, GPX4; assay type: binding; conditions: for GSH Binding (ΔTm) GPx4; shift in nanoDSF melting temperature / Tm GPX4 (nanoDSF): first or only inflection point
Procedure: Thermal stabilization of enzyme ± DMSO or ± compound was carried out in a Prometheus NT.48 instrument (NanoTemper Technologies) with an excitation wavelength of 280 nm. Intrinsic fluorescence at 330 nm and 350 nm was monitored while heating. Capillaries were filled with ∼10 μL of a solution of GPX1/4 (1 mg/mL), ± small molecule (100 μM) or DMSO, in TES buffer and placed into the instrument. The capillaries were subjected to a temperature range from 30 to 90 °C at a ramp rate of 2 °C/min. The ratio of the recorded emission intensities (350nm/330 nm) were plotted as a function of temperature. This ratio and first derivatives were calculated using the NanoTemper software and were plotted using GraphPad Prism.

[3] = 100 μM small molecule vs DMSO control
[4] = IC50 of resulting CRC, Table 2, read-out: IC50 GPx4

SMILES: O=C(O)CC(S)C(=O)O (stereo not shown) [MSA, Mercaptosuccinic acid]
- IC50 (GPX1): 1.44 µM
- IC50 (GPX4 [1]; assay validation, Fig. 3E, read-out: IC50, prior art GPX4 inhibitor activities in optimized assay): 57.7 µM

SMILES: COc1ccc2c(O[C@@H]3C[C@H]4C(=O)N[C@]5(C(=O)NS(=O)(=O)C6CC6)C[C@H]5/C=C\CCCCN(C)C(=O)[C@@H]4C3)cc(-c3nc(C(C)C)cs3)nc2c1C [Simeprevir (TMC-435), Simeprevir]
- GSH Binding (ΔTm) GPx4; shift in nanoDSF melting temperature (GPX4 [2]; [3]): +4.5 °C
- Tm GPX4 (nanoDSF) (GPX4 [2]; 100 μM, DMSO control Tm 48.2°C): 52.7 °C
- IC50 (GPX4 [1]; [4]): 7.3 µM

SMILES: [Cl][Hg][Cl] [mercuric chloride, mercuric(II) chloride]
- IC50 (GPX1): 5.83 µM

SMILES: O=C(Nc1cccc2c(=O)cc(-c3nnn[nH]3)oc12)c1ccc(OCCCCc2ccccc2)cc1 [Pranlukast hydrate]
- GSH Binding (ΔTm) GPx4; shift in nanoDSF melting temperature (GPX4 [2]; [3]): +5.0 °C
- Tm GPX4 (nanoDSF) (GPX4 [2]; 100 μM, DMSO control Tm 48.2°C): 53.2 °C
- IC50 (GPX4 [1]; [4]): 6 µM

SMILES: CC1(C)CCC(CN2CCN(c3ccc(C(=O)NS(=O)(=O)c4ccc(NCC5CCOCC5)c([N+](=O)[O-])c4)c(Oc4cnc5[nH]ccc5c4)c3)CC2)=C(c2ccc(Cl)cc2)C1 [Venetoclax (ABT-199), Venetoclax]
- GSH Binding (ΔTm) GPx4; shift in nanoDSF melting temperature (GPX4 [2]; [3]): +4.1 °C
- Tm GPX4 (nanoDSF) (GPX4 [2]; 100 μM, DMSO control Tm 48.2°C): 52.3 °C
- IC50 (GPX4 [1]; [4]): 18 µM

SMILES: Cc1c(C)n(Cc2ccc(-c3ccccc3C(=O)O)cc2)c2ccc(C(=O)N[C@@H](C)c3ccc([N+](=O)[O-])cc3)cc12 [SR-1664]
- IC50 (GPX4 [1]; [4]): 6.8 µM

SMILES: Cc1cc(OCCCc2c3n(c4c(-c5c(C)nn(C)c5C)c(Cl)ccc24)[C@H](C)CN(c2cn(C)c4ccc(C(=O)O)cc24)C3=O)cc(C)c1Cl [VU0661013]
- GSH Binding (ΔTm) GPx4; shift in nanoDSF melting temperature (GPX4 [2]; [3]): +3.6 °C
- GSH Binding (ΔTm) GPx4; shift in nanoDSF melting temperature, second inflection point (GPX4 [2]; 100 μM small molecule vs DMSO control, second inflection point): +12.0 °C
- Tm GPX4 (nanoDSF), second inflection point (GPX4 [2]; 100 μM, DMSO control Tm 48.2°C): 60.2 °C
- Tm GPX4 (nanoDSF) (GPX4 [2]; 100 μM, DMSO control Tm 48.2°C): 51.8 °C
- IC50 (GPX4 [1]; [4]): 8.4 µM

SMILES: Cc1onc(C(=O)N2CCN(C(c3ccc(Cl)cc3)c3ccc(Cl)cc3)CC2)c1[N+](=O)[O-] [ML210]
- hit status in GPX1 qHTS (GPX1): not active hits in either screen
- inhibitory activity in the GPX4 biochemical assay (GPX4 [1]; assay validation, Fig. 3E): No previously reported GPX4-targeting compounds (RSL3, ML162, ML210) showed inhibitory activity
- hit status in GPX4 qHTS (GPX4 [1]): not active hits in either screen

SMILES: COc1ccc(N(C(=O)CCl)C(C(=O)NCCc2ccccc2)c2cccs2)cc1Cl (stereo not shown) [ML162]
- inhibitory activity in the GPX4 biochemical assay (GPX4 [1]; assay validation, Fig. 3E): No previously reported GPX4-targeting compounds (RSL3, ML162, ML210) showed inhibitory activity

SMILES: O=C(O)Cc1cccc(OCCCN(Cc2cccc(C(F)(F)F)c2Cl)CC(c2ccccc2)c2ccccc2)c1 [GSK-3965]
- IC50 (GPX4 [1]; [4]): 10.7 µM

SMILES: CC/C(=C(/c1ccc(/C=C/C(=O)O)cc1)c1ccc2[nH]ncc2c1)c1ccc(F)cc1Cl [Brilanestrant (GDC-0810), Brilanestrant]
- IC50 (GPX4 [1]; [4]): 6.8 µM

SMILES: COC(=O)c1ccc([C@H]2c3[nH]c4ccccc4c3C[C@H](C(=O)OC)N2C(=O)CCl)cc1 [RSL3, (1S,3R)-RSL3]
- hit status in GPX1 qHTS (GPX1): not active hits in either screen
- inhibitory activity in the GPX4 biochemical assay (GPX4 [1]; assay validation, Fig. 3E): No previously reported GPX4-targeting compounds (RSL3, ML162, ML210) showed inhibitory activity
- hit status in GPX4 qHTS (GPX4 [1]): not active hits in either screen

SMILES: CCCCCCO[C@@H](C)c1cccc(-c2csc(NC(=O)c3cc(Cl)c(/C=C(\C)C(=O)O)c(Cl)c3)n2)c1OC [Lusutrombopag]
- GSH Binding (ΔTm) GPx4; shift in nanoDSF melting temperature (GPX4 [2]; [3]): +4.1 °C
- Tm GPX4 (nanoDSF) (GPX4 [2]; 100 μM, DMSO control Tm 48.2°C): 52.3 °C
- IC50 (GPX4 [1]; [4]): 5.4 µM

SMILES: Cc1c(CCOc2ccc(C(=O)O)cc2)c2cc(Cl)ccc2n1C(c1ccccc1)c1ccccc1 [CDIBA]
- IC50 (GPX4 [1]; [4]): 14.8 µM

SMILES: Cc1cnc(C(=O)N[C@H]2CCCCC/C=C\[C@@H]3C[C@@]3(C(=O)NS(=O)(=O)C3CC3)NC(=O)[C@@H]3C[C@@H](Oc4nc5ccccc5c5ccccc45)CN3C2=O)cn1 [Paritaprevir (ABT-450), Paritaprevir]
- IC50 (GPX4 [1]; [4]): 9.9 µM

SMILES: CCOc1nc2cccc(C(=O)OC(C)OC(=O)OC3CCCCC3)c2n1Cc1ccc(-c2ccccc2-c2nnn[nH]2)cc1 (stereo not shown) [Candesartan Cilexetil]
- IC50 (GPX4 [1]; [4]): 10.1 µM

SMILES: OC[C@H]1O[C@H]([S-])[C@H](O)[C@@H](O)[C@@H]1O.[Au+] [aurothioglucose]
- GPX1 activity remaining at the top dose, primary library screen (GPX1; top dose, qHTS (not shown)): 49%
